These are literature values, as cited in patent US4960596A (Ethypharm, priority 1987, dated 1990).

Where a name gives a salt, the structure may show the parent alone.

The subject of series [1] is special channels to be found in the membranes of a variety of cells (calcium).
The conditions of series [2]: literature.
The subject of another series is sodium-potassium pump. As to conditions: smooth muscle cells and other types of cell.

Consider `COc1ccc(C2Sc3ccccc3N(CCN(C)C)C(=O)C2OC(C)=O)cc1` (stereo not drawn) [Diltiazem, Diltiazem hydrochloride], for which the “effect on smooth muscle” value in the series with smooth muscle is on record as “vasodilatation of smooth muscle”. In addition, the calcium inflow entry in series [1] was “inhibit the inflow of calcium”. Further, in the series with heart muscle, the “heart pacemaker activity and auriculo-ventricular node conduction” value was “depressive effective on heart pacemaker activity and on auriculo-ventricular node conduction resulting in a negative chronotropic effect”; the inotropic effect entry is recorded as “weak negative inotropic effect on the heart muscle”. For the same compound, in series [2], the half life result is on record as “four hours to seven hours”. Further, the intra-cellular sodium entry in the series with sodium-potassium pump is “reduces intra-cellular sodium by stimulating the sodium-potassium pump”.
